Assay results as given in PubChem BioAssay (NCI).
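Briefly, cells in 96-well plates were exposed to five compound concentrations for 48 h, and endpoints were estimated by linear interpolation. The concentration for 50% growth inhibition is given as GI50. TGI marks complete inhibition of growth.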

What was measured:
Experiment in all cases: inhibition of tumour cell growth, NCI panel, 48 h; in the data active = GI50 below about 0.43 µM; inactive = the rest
[1] = test system: NCI-H460 lung
[2] = test system: SF-268 CNS
[3] = test system: UO-31 renal
[4] = test system: SK-MEL-2 melanoma
[5] = test system: ACHN renal
[6] = test system: 786-0 renal
[7] = test system: SR leukemia
[8] = test system: A549 NSCLC
[9] = test system: SNB-19 CNS
[10] = test system: NCI-H522 lung
[11] = test system: SN12C renal
[12] = test system: SK-MEL-5 melanoma
[13] = test system: DU-145 prostate
[14] = test system: EKVX NSCLC
[15] = test system: SNB-75 CNS
[16] = test system: MDA-MB-231 breast
[17] = test system: OVCAR-5 ovarian
[18] = test system: OVCAR-3 ovarian
[19] = test system: UACC-62 melanoma
[20] = test system: CAKI-1 renal
[21] = test system: HOP-62 NSCLC
[22] = test system: U251 CNS
[23] = test system: HCT-15 colon
[24] = test system: SF-295 CNS
[25] = test system: SK-OV-3 ovarian
[26] = test system: MDA-N
[27] = test system: IGROV1 ovarian
[28] = test system: NCI/ADR-RES ovarian
[29] = test system: M14 melanoma
[30] = test system: MOLT-4 leukemia
[31] = test system: NCI-H23 lung
[32] = test system: BT-549 breast
[33] = test system: COLO 205 colon
[34] = test system: TK-10 renal
[35] = test system: RXF 393 renal
[36] = test system: K-562 leukemia
[37] = test system: HCT-116 colon
[38] = test system: T-47D breast
[39] = test system: OVCAR-4 ovarian
[40] = test system: LOX IMVI melanoma
[41] = test system: HCC-2998 colon
[42] = test system: KM12 colon
[43] = test system: UACC-257 melanoma
[44] = test system: MCF7 breast
[45] = test system: CCRF-CEM leukemia
[46] = test system: PC-3 prostate
[47] = test system: NCI-H226 lung
[48] = test system: SK-MEL-28 melanoma
[49] = test system: SW-620 colon
[50] = test system: RPMI-8226 leukemia
[51] = test system: HS 578T breast
[52] = test system: MDA-MB-435
[53] = test system: HOP-92 NSCLC
[54] = test system: OVCAR-8 ovarian
[55] = test system: MALME-3M melanoma
[56] = test system: A498 renal
[57] = test system: HT29 colon
[58] = test system: HL-60(TB) leukemia
[59] = test system: SF-539 CNS

O=C(OCC(Cl)(Cl)Cl)N1CC[C@@H](C2CCCCC2)C1
> 100 µM: TGI [8] | TGI [11] | TGI [13] | TGI [16] | TGI [25] | TGI [26] | TGI [27] | TGI [32] | TGI [34] | TGI [38] | TGI [40] | TGI [43]
18.9 µM: TGI [22]
49.7 µM: TGI [5]
43 µM: TGI [6]
80.7 µM: TGI [37]
40.2 µM: TGI [3]
48.7 µM: TGI [15]
51.7 µM: TGI [14]
32.9 µM: TGI [28]
50.6 µM: TGI [17]
64.2 µM: TGI [31]
46.3 µM: TGI [46]
56.3 µM: TGI [33]
96.5 µM: TGI [29]
43.1 µM: TGI [10]
36.6 µM: TGI [12]
76.5 µM: TGI [20]
56.4 µM: TGI [30]
36.7 µM: TGI [41]
85.5 µM: TGI [19]
32.2 µM: TGI [18]
37.1 µM: TGI [35]
38.6 µM: TGI [9]
34.3 µM: TGI [2]
45.5 µM: TGI [44]
38.9 µM: TGI [24]
43.8 µM: TGI [1]
35.9 µM: TGI [23]
50.1 µM: TGI [36]
69.4 µM: TGI [7]
33.1 µM: TGI [4]
46.7 µM: TGI [45]
31.8 µM: TGI [42]
42.2 µM: TGI [39]
38 µM: TGI [21]

NS(=O)(=O)c1cccc(-c2cc3ccncc3cc2OCc2ccccc2)c1
> 21.4 µM: TGI [3]
> 18.4 µM: TGI [51]
13.5 µM: TGI [58]
> 17.7 µM: TGI [24]
> 20.7 µM: TGI [6]
> 15.8 µM: TGI [12]
> 25 µM: TGI [1] | TGI [47] | TGI [48] | TGI [2] | TGI [5] | TGI [7] | TGI [49] | TGI [8] | TGI [9] | TGI [10] | TGI [11] | TGI [50] | TGI [13] | TGI [14] | TGI [15] | TGI [52] | TGI [17] | TGI [18] | TGI [19] | TGI [20] | TGI [21] | TGI [22] | TGI [53] | TGI [23] | TGI [25] | TGI [54] | TGI [27] | TGI [55] | TGI [28] | TGI [29] | TGI [30] | TGI [31] | TGI [32] | TGI [33] | TGI [34] | TGI [59] | TGI [36] | TGI [37] | TGI [38] | TGI [39] | TGI [40] | TGI [41] | TGI [42] | TGI [43] | TGI [44] | TGI [45] | TGI [46]
> 21.8 µM: TGI [35]
> 19.6 µM: TGI [4]
13 µM: TGI [56]
16.8 µM: TGI [57]
> 23.9 µM: TGI [16]
inactive: GI50 [1] 11.7 µM | GI50 [47] 9.03 µM | GI50 [48] 5.85 µM | GI50 [2] 14.5 µM | GI50 [3] 5.76 µM | GI50 [4] 7.43 µM | GI50 [5] 8.14 µM | GI50 [6] 7.37 µM | GI50 [7] 11.6 µM | GI50 [49] 9.92 µM | GI50 [8] 10.3 µM | GI50 [9] 19.1 µM | GI50 [10] 13.5 µM | GI50 [11] 14.5 µM | GI50 [50] 6.66 µM | GI50 [12] 4.83 µM | GI50 [13] 17.1 µM | GI50 [14] 9.67 µM | GI50 [15] 3.23 µM | GI50 [16] 7.37 µM | GI50 [51] 4.2 µM | GI50 [52] 12.7 µM | GI50 [17] 14.8 µM | GI50 [18] 10.9 µM | GI50 [19] 9.76 µM | GI50 [20] 10.6 µM | GI50 [21] 11.6 µM | GI50 [22] 13 µM | GI50 [53] 4.39 µM | GI50 [23] 7.67 µM | GI50 [24] 6.55 µM | GI50 [25] > 18.5 µM | GI50 [54] 10.1 µM | GI50 [27] > 20.7 µM | GI50 [55] 14.7 µM | GI50 [28] 11.2 µM | GI50 [56] 2.17 µM | GI50 [29] 14.5 µM | GI50 [30] 8.44 µM | GI50 [31] > 18.4 µM | GI50 [32] 7.65 µM | GI50 [33] 10.7 µM | GI50 [57] 6.05 µM | GI50 [34] 9.77 µM | GI50 [35] 4.96 µM | GI50 [58] 4.64 µM | GI50 [59] 8.62 µM | GI50 [36] 6.61 µM | GI50 [37] 10.1 µM | GI50 [38] 12.7 µM | GI50 [39] 11.5 µM | GI50 [40] 12.4 µM | GI50 [41] 15.2 µM | GI50 [42] 10.7 µM | GI50 [43] 7.76 µM | GI50 [44] 10.5 µM | GI50 [45] 8.43 µM | GI50 [46] 10.8 µM

Nc1nc(NNc2ccccc2F)cc(=O)[nH]1
> 100 µM: TGI [1] | TGI [47] | TGI [48] | TGI [3] | TGI [5] | TGI [6] | TGI [7] | TGI [49] | TGI [8] | TGI [9] | TGI [11] | TGI [50] | TGI [12] | TGI [13] | TGI [14] | TGI [16] | TGI [51] | TGI [52] | TGI [17] | TGI [18] | TGI [21] | TGI [22] | TGI [23] | TGI [24] | TGI [54] | TGI [26] | TGI [27] | TGI [55] | TGI [28] | TGI [56] | TGI [29] | TGI [30] | TGI [32] | TGI [33] | TGI [57] | TGI [34] | TGI [58] | TGI [59] | TGI [36] | TGI [37] | TGI [39] | TGI [40] | TGI [41] | TGI [42] | TGI [43] | TGI [44] | TGI [45] | TGI [46]
